Data set [1] has as its system generalized trembling caused by dl-5-hydroxytryptophane. The data set is described as follows: Test A: potentiation in mice of generalized trembling caused by intraperitoneal injection of dl-5-hydroxytryptophane. It counts as in vivo. As to conditions: Mus musculus, po, dl-5-hydroxytryptophane 200 mg/kg intraperitoneal, read-out: Test A ED 50. The method, then:
Test A: potentiation in mice of generalized trembling caused by an intraperitoneal injection (200 mg/kg) of dl-5-hydroxytryptophane, according to the procedure described by Gouret C. and Raynaud G. in J. Pharmacol. (Paris) (1974), 5, 231.

The next data set is described as follows: Toxicity (mice). As to conditions: mouse, in vivo, po, read-out: Toxicity (mice) LD 50.
A further data set deals with ptosis after reserpine. The data set is described as follows: Test B: antagonism of ptosis observed an hour after intravenous injection of reserpine in mice. The conditions noted are these: Mus musculus, po, ptosis an hour after reserpine 2 mg/kg intravenous, read-out: Test B ED 50. Type of data set: in vivo. The method, then:
Test B: antagonism with respect to ptosis observed an hour after an intravenous injection (2 mg/kg) of reserpine in mice according to the procedure described by Gouret C. and Thomas J. in J. Pharmacol. (Paris), (1973), 4, 401.

The structures appear in SMILES notation.

With `COCC1CN(c2ccc(OCCc3cccc(Cl)c3)cc2)C(=O)O1` (centres unmarked) [compound 264], the ED50 in data set [1] was 2.8 mg/kg; in the data set on ptosis after reserpine it was 3 mg/kg. The LD50 in the data set “Toxicity (mice)” was more than 1000 mg/kg.
Taken in the same sequence, the figures for `COCC1CN(c2ccc(CCCCCC#N)cc2)C(=O)O1` (centres unmarked) [compound 289] were 0.15 mg/kg, 0.2 mg/kg and more than 1000 mg/kg.
In the same order, the values of `COCC1CN(c2ccc(C#Cc3cccc(C#N)c3)cc2)C(=O)O1` (centres unmarked) [compound 282] are 0.3 mg/kg, 0.3 mg/kg and more than 1000 mg/kg.
In the same order, the values of `COCC1CN(c2ccc(OCCc3cccc(C#N)c3)cc2)C(=O)O1` (centres unmarked) [compound 267] are 1.8 mg/kg, 1.3 mg/kg and more than 1000 mg/kg.
Regarding `COCC1CN(c2ccc(CCc3cccc(C#N)c3)cc2)C(=O)O1` (centres unmarked) [compound 272], the ED50 in data set [1] was found to be 0.5 mg/kg; with ptosis after reserpine, 0.4 mg/kg. The LD50 in “Toxicity (mice)” was more than 1000 mg/kg.
As to `COCC1CN(c2ccc(CC(=O)c3cccc(Cl)c3)cc2)C(=O)O1` (centres unmarked) [compound 274], the ED50 in data set [1] came out at 1.2 mg/kg; in the data set with ptosis after reserpine, 0.9 mg/kg. For the same molecule, the LD50 in “Toxicity (mice)” was more than 1000 mg/kg.
Taken in the same sequence, the figures for `COCC1CN(c2ccc(C#CC3CCCCC3)cc2)C(=O)O1` (centres unmarked) [compound 281] were 1.3 mg/kg, 0.6 mg/kg and more than 1000 mg/kg.
In the same order, the values of `COCC1CN(c2ccc(CCc3cccc(Cl)c3)cc2)C(=O)O1` (centres unmarked) [compound 271] are 4.1 mg/kg, 3.8 mg/kg and more than 1000 mg/kg.
Take `Cc1cccc(N2CC(CO)OC2=O)c1` (centres unmarked) [TOLOXATONE, reference compound]: the ED50 in data set [1] was 60 mg/kg; in the data set on ptosis after reserpine it was 50 mg/kg.
As to `COCC1CN(c2ccc(OCCC(C)=O)cc2)C(=O)O1` (centres unmarked) [compound 238], the ED50 in data set [1] stood at 1.9 mg/kg; with ptosis after reserpine, 1.1 mg/kg. Also, the LD50 in “Toxicity (mice)” is more than 1000 mg/kg.
Regarding `COCC1CN(c2ccc(-c3cccc(C#N)c3)cc2)C(=O)O1` (centres unmarked) [compound 284], the results for the ED50 (in data set [1]; with ptosis after reserpine) were 1.2 mg/kg and 1.3 mg/kg, respectively. Besides, in “Toxicity (mice)”, the LD50 is more than 1000 mg/kg.
As for `COCC1CN(c2ccc(-c3ccc(Cl)cc3)cc2)C(=O)O1` (centres unmarked) [compound 269], the ED50 was 1.7 mg/kg in data set [1] and 1.2 mg/kg in the data set with ptosis after reserpine. In addition, the LD50 in the data set “Toxicity (mice)” is more than 1000 mg/kg.
In the same order, the values of `COCC1CN(c2ccc(COc3cccc(C#N)c3)cc2)C(=O)O1` (centres unmarked) [compound 275] are 0.6 mg/kg, 0.3 mg/kg and more than 1000 mg/kg.
As for `COCC1CN(c2ccc(CC(=O)c3cccc(C#N)c3)cc2)C(=O)O1` (centres unmarked) [compound 270], the ED50 (in data set [1]; with ptosis after reserpine) was 0.2 mg/kg in each case. In addition, the LD50 in “Toxicity (mice)” was more than 1000 mg/kg.
With `COCC1CN(c2ccc(COc3cccc(Cl)c3)cc2)C(=O)O1` (centres unmarked) [compound 273], the ED50 in data set [1] came to 5.9 mg/kg; with ptosis after reserpine, 3.4 mg/kg. Moreover, the LD50 in “Toxicity (mice)” was more than 1000 mg/kg.
In the same order, the values of `COCC1CN(c2ccc(C#Cc3cccc(Cl)c3)cc2)C(=O)O1` (centres unmarked) [compound 277] are 1.2 mg/kg, 1.7 mg/kg and more than 1000 mg/kg.

Values taken from patent US4517197A, “-N-substituted phenyl-5-methoxymethyl-2-oxazolidinones and pharmaceutical compositions containing same” (Delalande S.A., priority 1980, dated 1985).
